Test results published in patent US20230201185A1, “TREATMENT OF TYPE 2 DIABETES OR OBESITY OR OVERWEIGHT WITH 2-[(4-{6-[(4-CYANO-2-FLUOROBENZYL)OXY]PYRIDIN-2-YL}PIPERIDIN-1-YL)METHYL]-1-[(2S)-OXETAN-2-YLMETHYL]-1H-BENZIMIDAZOLE-6-CARBOXYLIC ACID OR A PHARMACEUTICALLY SALT THEREOF” (Pfizer Inc., priority 2020, published 2023).
Read-outs that look alike come from different tables or passages of the source.

Tests used:
Assay type in all cases: in vivo, human
[1] = system: participants with type 2 diabetes mellitus (T2DM); assay: Clinical dose guiding study: ECG; conditions: planned treatment groups; self-limited
Excerpt: (§1) This study was a randomized, double-blind (sponsor-open), parallel, placebo-controlled, multiple oral dose-escalating study of Compound 1 (in the form of its tris salt) in participants with type 2 diabetes mellitus (T2DM) on a background of metformin monotherapy.
A total of 98 participants received oral doses of Compound 1 (in the form of its tris salt) or matching placebo for 28 days, in this study. A total of approximately 12 participants were enrolled in each cohort with a randomization ration of 3:1 (9 active and 3 placebo), and 8 cohorts were enrolled in the study. Participants were admitted to the clinical research unit (CRU) on or before Day −2 and were discharged following completion of all assessments on Day 30, at principal investigator discretion. For individual participants, the total duration of participation from the Screening visit to the on-site Follow-up visit was approximately 15 weeks. A Follow-up visit and a Follow-up contact (which have been conducted by phone call) occurred 35-42 days and 56-63 days following the first dose of investigational product on Day 1, respectively. Participants who discontinued prior to completion of the study might have been replaced, at the discretion of the principal investigator and Sponsor. 92 participants completed the inpatient study. […]

[2] = system: participants with type 2 diabetes mellitus (T2DM); assay: Clinical dose guiding study: 24-hour mean daily glucose (MDG); conditions: Day 28; for Mean Daily Glucose, Mean CFB: oral, on metformin
Excerpt: as §1
(§2) A total of 98 participants received oral doses of Compound 1 (in the form of its tris salt) or matching placebo for 28 days, in this study. A total of approximately 12 participants were enrolled in each cohort with a randomization ration of 3:1 (9 active and 3 placebo), and 8 cohorts were enrolled in the study. Participants were admitted to the clinical research unit (CRU) on or before Day −2 and were discharged following completion of all assessments on Day 30, at principal investigator discretion. For individual participants, the total duration of participation from the Screening visit to the on-site Follow-up visit was approximately 15 weeks. A Follow-up visit and a Follow-up contact (which have been conducted by phone call) occurred 35-42 days and 56-63 days following the first dose of investigational product on Day 1, respectively. Participants who discontinued prior to completion of the study might have been replaced, at the discretion of the principal investigator and Sponsor. 92 participants completed the inpatient study.
(§3) The planned titration schemes and dosing paradigms for all Cohorts are listed in Table 2-1. • QD: once daily • BID: twice daily
(§4) Diagnosis and Main Criteria for Inclusion: The population for this study was female participants of non-childbearing potential and/or male participants with T2DM, with an HbA1c […], who were taking metformin as their only anti-hyperglycemic treatment, and who were between 18 and 70 years with T2DM at the time of consent and Screening, with a body mass index (BMI) of 24.5 to 45.4 kg/m^2 and a total body weight >50 kg (110 lb). Metformin dose was required to be 500 mg per day and was required to be stable, for at least 2 months prior to the Screening visit and was administered in the CRU according to patient's baseline dosing regimen.
(§5) Study Treatment: Compound 1 (in the form of its tris salt) was supplied as 1 mg, 10 mg, 50 mg and 100 mg immediate release (IR) tablets or 50 mg controlled release (CR) tablets (see Examples 1 and 2) for oral administration. Matching placebo tablets (2:1, Microcrystalline Cellulose: Lactose) were also provided.
(§6) Measurements of fasting plasma glucose (FPG), 24-hour mean daily glucose (MDG), HbA1C, and body weight at baseline (at Day −1) and at Day 28 (shown as change from baselin) are shown in Tables 2-2 to 2-5.
(§7) Baseline was defined as the measurement (MDG, FPG, HbA1c, or body weight) on Day −1. Randomized treatment represented the target dose at Day 28.
Observed data presented. Mean Daily Glucose (MDG) was defined as AUC24/24.

[3] = system: participants with type 2 diabetes mellitus (T2DM); assay: Clinical dose guiding study: adverse events (TEAEs); conditions: for number of all causality TEAEs (events) / number of all causality TEAEs: 28 days
Excerpt: as §1, §2, §5

[4] = Clinical dose guiding study: plasma pharmacokinetics and urinary recovery; conditions: for Tmax: read-out: median Tmax and Tmax1
Excerpt: as §1, §2, §5

[5] = system: participants with type 2 diabetes mellitus (T2DM); assay: Clinical dose guiding study: HbA1c; conditions: Day 28, oral, on metformin
Excerpt: as §1, §2, §3, §4, §5, §6, §7

[6] = system: participants with type 2 diabetes mellitus (T2DM); assay: Clinical dose guiding study: fasting plasma glucose (FPG); conditions: Day 28, oral, on metformin
Excerpt: as §1, §2, §3, §4, §5, §6, §7

[7] = Clinical dose guiding study: body weight; conditions: Day 28, oral, T2DM on metformin
Excerpt: as §1, §2, §3, §4, §5, §6, §7

N#Cc1ccc(COc2cccc(C3CCN(Cc4nc5ccc(C(=O)O)cc5n4C[C@@H]4CCO4)CC3)n2)c(F)c1 [1,3-dihydroxy-2-(hydroxymethyl)propan-2-aminium 2-[(4-{6-[(4-cyano-2-fluorobenzyl)oxy]pyridin-2-yl}piperidin-1-yl)methyl]-1-[(2S)-oxetan-2-ylmethyl]-1H-benzimidazole-6-carboxylate]
participants with post-baseline ECG meeting criteria of QTcF interval >450 and ≤80 or change from baseline >30 and ≤60 [1]: 3 participants | Mean Daily Glucose, Mean CFB ([2]; 10 mg BID, baseline 189.9): -53.3 mg/dL | Mean Daily Glucose, Mean CFB ([2]; 15 mg BID, baseline 225.4): -85.9 mg/dL | Mean Daily Glucose, Mean CFB ([2]; 50 mg BID, baseline 190.2): -48.7 mg/dL | Mean Daily Glucose, Mean CFB ([2]; 70 mg BID, baseline 218.5): -101.6 mg/dL | Mean Daily Glucose, Mean CFB ([2]; 120 mg BID Slow Titration, baseline 179.9): -68.6 mg/dL | Mean Daily Glucose, Mean CFB ([2]; 120 mg BID, baseline 219.0): -105.9 mg/dL | Mean Daily Glucose, Mean CFB ([2]; 120 mg QD, baseline 188.8): -70.9 mg/dL | Mean Daily Glucose, Mean CFB ([2]; 200 mg QD Controlled Release, baseline 225.2): -102.8 mg/dL | reductions in FPG, MDG, HbA1c, and body weight ([2]; increasing efficacy at higher doses of 70 mg to 120 mg twice daily): robust reductions | incidence of all causalities TEAEs in Gastrointestinal Disorders category ([3]; 10 mg BID group (placebo 52.0%)): 33.3% | number of all causality TEAEs (events) ([3]; 10 mg BID group): 8 events | number of all causality TEAEs (events) ([3]; 15 mg BID group): 16 events | participants discontinued from the study due to treatment-related TEAEs ([3]; 15 mg BID group, moderate TEAE of headache): 1 participant | participants with dose reduction or temporary discontinuation due to TEAEs ([3]; 50 mg BID group): 4 participants | number of all causality TEAEs ([3]; 50 mg BID group): 45 | participants discontinued from the study due to treatment-related TEAEs ([3]; 50 mg BID group, moderate decreased appetite, nausea, vomiting and mild fatigue): 1 participant | number of all causality TEAEs ([3]; 70 mg BID group): 31 | participants with dose reduction or temporary discontinuation due to TEAEs ([3]; 120 mg BID Slow titration group): 2 participants | participants with dose reduction or temporary discontinuation due to TEAEs ([3]; 120 mg BID group): 1 participants | number of all causality TEAEs ([3]; 120 mg BID group): 43 | participants with mild hypoglycemia ([3]; 120 mg BID group, after missing a meal or snack, self-limited, treatment-related): 1 participant | severe TEAEs ([3]; 120 mg BID slow titration group, 1 treatment-related, 1 not): 2 | number of all causality TEAEs (events) ([3]; 120 mg BID slow titration group): 50 events | SAE ([3]; 120 mg BID slow titration group, not treatment-related): 1 | number of all causality TEAEs ([3]; 120 mg QD group): 35 | participants with dose reduction or temporary discontinuation due to TEAEs ([3]; 200 mg QD CR group): 1 participants | number of all causality TEAEs ([3]; 200 mg QD CR group): 47 | adverse trends in safety laboratory tests, vital signs or ECG parameters with increasing dose ([3]; ascending, multiple, oral doses): no clinically significant adverse trends | overall safety and tolerability ([3]; ascending, multiple, oral doses, adult participants with T2DM): generally safe and well-tolerated | dose proportionality of exposure (dose normalized mean AUC24) ([4]; Day 1, BID and QD treatments, IR formulation): approximately dose proportional | dose proportionality of AUC24 and Cmax ([4]; Day 28, BID IR formulation cohorts): approximately dose-proportional | Tmax ([4]; human, plasma, Day 1, single oral dose, IR formulation, QD and BID regimens): 2 to 4 h | HbA1c, Mean CFB ([5]; 10 mg BID, baseline 8.2): −0.8% | HbA1c, Mean CFB ([5]; 15 mg BID, baseline 8.6): −0.9% | HbA1c, Mean CFB ([5]; 50 mg BID, baseline 8.3): −1.2% | HbA1c, Mean CFB ([5]; 70 mg BID, baseline 8.3): −1.2% | HbA1c, Mean CFB ([5]; 120 mg BID Slow Titration, baseline 8.2): −1.2% | HbA1c, Mean CFB ([5]; 120 mg BID, baseline 8.5): −1.2% | HbA1c, Mean CFB ([5]; 120 mg QD, baseline 8.2): −1.0% | HbA1c, Mean CFB ([5]; 200 mg QD Controlled Release, baseline 8.6): −1.1% | Fasting Plasma Glucose, Mean CFB ([6]; 10 mg BID, baseline 158.3): -34.3 mg/dL | Fasting Plasma Glucose, Mean CFB ([6]; 15 mg BID, baseline 198.4): -66.6 mg/dL | Fasting Plasma Glucose, Mean CFB ([6]; 50 mg BID, baseline 168.1): -34.5 mg/dL | Fasting Plasma Glucose, Mean CFB ([6]; 70 mg BID, baseline 186.3): -80.6 mg/dL | Fasting Plasma Glucose, Mean CFB ([6]; 120 mg BID Slow Titration, baseline 176.3): -75.1 mg/dL | Fasting Plasma Glucose, Mean CFB ([6]; 120 mg BID, baseline 196.9): -89.7 mg/dL | Fasting Plasma Glucose, Mean CFB ([6]; 120 mg QD, baseline 179.9): -48.3 mg/dL | Fasting Plasma Glucose, Mean CFB ([6]; 200 mg QD Controlled Release, baseline 195.3): -77.3 mg/dL | Body Weight, Mean CFB ([7]; 10 mg BID, baseline 99.90): -2.8 kg | Body Weight, Mean CFB ([7]; 15mg BID, baseline 93.60): -2.4 kg | Body Weight, Mean CFB ([7]; 50 mg BID, baseline 88.24): -2.4 kg | Body Weight, Mean CFB ([7]; 70 mg BID, baseline 86.08): -4.0 kg | Body Weight, Mean CFB ([7]; 120 mg BID Slow Titration, baseline 88.01): -5.5 kg | Body Weight, Mean CFB ([7]; 120 mg BID, baseline 101.34): -7.9 kg | Body Weight, Mean CFB ([7]; 120 mg QD, baseline 84.88): -4.3 kg | Body Weight, Mean CFB ([7]; 200 mg QD Controlled Release, baseline 92.29): -3.1 kg

N#Cc1ccc(COc2cccc(C3CCN(Cc4nc5ccc(C(=O)O)cc5n4C[C@@H]4CCO4)CC3)n2)c(F)c1 [Compound 1, 2-[(4-{6-[(4-Cyano-2-fluorobenzyl)oxy]pyridin-2-yl}piperidin-1-yl)methyl]-1-[(2S)-oxetan-2-ylmethyl]-1H-benzimidazole-6-carboxylic acid]
Urinary recovery, dose recovered unchanged in urine ([4]; Day 28): < 0.1 % of the dose | Tmax ([4]; human, plasma, oral, Day 28, BID and QD IR treatments): 3 to 10 h | half-life ([4]; human, plasma, oral, across all treatments, read-out: Mean t % (terminal half life)): 4.7 to 8.1 h
